From patent US20220339260A1, “METHOD FOR PRODUCING INSULIN-PRODUCING CELL USING DIHYDROINDOLIZINONE DERIVATIVES” (TOKYO INSTITUTE OF TECHNOLOGY, priority 2019, published 2022)

System: human iPS cell Toe strain
Test: Effect to promote differentiation from human iPS cells into insulin-producing cells (insulin-positive cell rate, Reference Example 1)
Type: cell-based
Parameters: key to Activity: the sum of activity values at the two concentrations was obviously higher than the control untreated with compounds while being lower than the positive control was expressed as +; the sum was equivalent to the positive control was expressed as ++; the sum was higher than the positive control was expressed as +++
Details: activity intensity: sum of activity values (increment in insulin-positive cell rate) at 2 μM and 10 μM compared with positive control (compound of Synthesis Example 1)
Excerpt: The evaluation system of the effect (efficacy) to promote differentiation from human iPS cells into insulin-producing cells was constructed with reference to known information (Non Patent Document 6). Further, the medium used in each differentiation stage was also produced with reference to known information (differentiation media A to E (Media A to E) described in Non Patent Document 6 were used respectively for stages 1 to 5; however, a medium free from GLP-1 receptor agonist and nicotinamide was used as differentiation medium E).
In order to evaluate the efficacy of each compound, the compound of Synthesis Example 1 was used as a positive control, and dimethylsulfoxide (DMSO) (SIGMA, D2650) with a final concentration of 0.1% was used as a control untreated with compounds. Each compound was dissolved in DMSO, and two types of compound solutions were prepared so as to have final concentrations of 2 μM and 10 μM after the compound was added to the medium. In the following evaluation, the compound solutions were added to the medium to 0.1% that is the final concentration of DMSO.
First, induction from human iPS cell Toe strain (National Institutes of Biomedical Innovation, Health and Nutrition) into cells on day 7 of culture (2 days after replacement with differentiation medium C (cells in the differentiation process from FOXA2-positive primitive gut tube cells into PDX1-positive pancreatic progenitor cells)) was performed according to the method of Non Patent Document 6 for “inducing differentiation from human iPS cells into pancreatic β cells”, and the cells were collected and thereafter stored in liquid nitrogen using Bambanker (NIPPON Genetics Co, Ltd.) at 1×10^7 cells/mL/tube, to produce a cell stock for evaluation. The cell stock was dissolved at the start of the evaluation of efficacy, suspended in differentiation medium C for stage 3 (DMEM high glucose (Life technologies, 11965092), 0.25 μM SANT-1, 0.1 μM LDN193189 (Stemgent, 04-0074), 10 μM SB431542, 2 μM Retinoic acid (Stemgent, 04-0021), 1% B27 serum free supplement (Life technologies, 17504044) and thereafter seeded in a 96-well plate (Corning, #3340) coated with Synthemax II (Corning, #5656) at 1×10^5 cells/well. After culturing for 2 days, the medium was removed, and new differentiation medium C for stage 3 with the compound or only DMSO added was added thereto at 100 μL/well. After culturing for 2 days, the medium was removed, and new differentiation medium D for stage 4 (DMEM high glucose, 0.1 μM LDN193189, 5 μM TGF-β type I receptor kinase inhibitor II (Calbiochem 616452), 0.3 μM (−)-indolactam V (Enzo life science ALX-420-011-C300), 1% B27 serum free supplement) with the compound or only DMSO added was added thereto at 100 μL/well. After culturing for 2 to 3 days, the medium was removed, and new differentiation medium E for stage 5 (GLP-1 receptor agonist and nicotinamide-free; Knockout […] (Life technologies, 12660012), 1% B27 serum free supplement) with the compound or only DMSO added was added thereto at 200 μL/well. After culturing for 2 days, the medium was removed, and a 4% paraformaldehyde phosphorus acid buffer (Wako, 163-20145) was added thereto at 150 μL/well and left standing for 30 to 60 minutes at room temperature to fix the cells. A phosphorus acid buffer (PBS) (Takara, T9181) containing 1% Triton X-100 (Sigma, T8787) was left standing for 15 minutes at room temperature, then washed with PBS-T (Takara, T9183), and was blocked for 1 hour using 20% Blocking One (Nacalai tesque, Tokyo, Japan) diluted with PBS-T at room temperature. After the removal of Blocking One, guinea pig anti-insulin antibody (Abcam, ab7842) diluted 200-fold with 20% Blocking One was added thereto at 50 μL/well, followed by standing at 4° C. overnight. […]

Row | Compound | Activity
1 | Cc1cc2n(c1)C(C(=O)Nc1ncc(-c3ccc(OC(C)(C)C)cc3)s1)CCC2=O (centres unmarked) [Example 63] | +++
2 | O=C1CCC(C(=O)Nc2ncc(-c3ccc(OC(F)(F)F)cc3)s2)n2cc(Cl)cc21 (centres unmarked) [Example 64] | ++
3 | CC1(C(=O)Nc2ncc(-c3ccc(OC(F)(F)F)cc3)s2)CCC(=O)c2cccn21 (centres unmarked) [Example 65] | +++
4 | Cc1ccc(-c2cnc(NC(=O)C3(C)CCC(=O)c4cccn43)s2)cc1 (centres unmarked) [Example 66] | ++
5 | Cc1cccc(-c2cnc(NC(=O)C3(C)CCC(=O)c4cccn43)s2)c1 (centres unmarked) [Example 67] | ++
6 | CC1(C(=O)Nc2ncc(-c3ccc4c(c3)OC(F)(F)O4)s2)CCC(=O)c2cccn21 (centres unmarked) [Example 68] | ++
7 | CC(C)Oc1ccc(-c2cnc(NC(=O)C3(C)CCC(=O)c4cccn43)s2)cc1 (centres unmarked) [Example 69] | ++
8 | Cc1cc(-c2cnc(NC(=O)C3(C)CCC(=O)c4cccn43)s2)ccc1OC(F)(F)F (centres unmarked) [Example 70] | ++
9 | CC1(C(=O)Nc2ncc(-c3ccc(OC(F)(F)F)c(Cl)c3)s2)CCC(=O)c2cccn21 (centres unmarked) [Example 71] | +++
10 | CC1(C(=O)Nc2ncc(-c3cccc(OC(F)(F)F)c3)s2)CCC(=O)c2cccn21 (centres unmarked) [Example 72] | +++
11 | O=C1CCC(C(=O)Nc2ccc(-c3ccc(OC(F)(F)F)cc3)cc2)n2cccc21 (centres unmarked) [Example 73] | +
12 | O=C1CCC(C(=O)Nc2ccc(-c3ccc4c(c3)OC(F)(F)O4)cc2)n2cccc21 (centres unmarked) [Example 74] | +
13 | O=C1CCC(C(=O)Nc2ccc(-c3ccc(OC(F)F)cc3)cc2)n2cccc21 (centres unmarked) [Example 75] | +
14 | O=C1CCC(C(=O)Nc2ccc(-c3ccc(OC(F)(F)F)c(Cl)c3)cc2)n2cccc21 (centres unmarked) [Example 76] | +
15 | O=C1CCC(C(=O)Nc2ccc(-c3ccc(OC(F)(F)F)cc3)cc2)n2c(Br)ccc21 (centres unmarked) [Example 77] | +
16 | O=C1CCC(C(=O)Nc2ccc(-c3ccc(OC(F)(F)F)cc3)cc2F)n2cccc21 (centres unmarked) [Example 78] | ++
17 | O=C1CCC(C(=O)Nc2ccc(-c3ccc(OC(F)(F)F)c(Cl)c3)cc2F)n2cccc21 (centres unmarked) [Example 79] | +
18 | CC(C)(C)Oc1ccc(-c2ccc(NC(=O)C3CCC(=O)c4cccn43)c(F)c2)cc1 (centres unmarked) [Example 80] | +
19 | Cc1cc(-c2ccc(OC(F)(F)F)cc2)ccc1NC(=O)C1CCC(=O)c2cccn21 (centres unmarked) [Example 81] | +

Row | Compound | Activity
20 | O=C1CCC(C(=O)Nc2ccc(-c3ccc(OC(F)(F)F)cc3)cn2)n2cccc21 (centres unmarked) [Example 82] | +
21 | O=C1CCC(C(=O)Nc2ccc3nc(-c4ccc(OC(F)(F)F)cc4)sc3c2)n2cccc21 (centres unmarked) [Example 83] | +
22 | Cc1nc(NC(=O)C2CCC(=O)c3cccn32)sc1-c1ccc2c(c1)OC(F)(F)O2 (centres unmarked) [Example 84] | +++
23 | Cc1nc(NC(=O)C2CCC(=O)c3cccn32)sc1-c1ccc(OCc2ccccc2)c(F)c1 (centres unmarked) [Example 85] | +++
24 | Cc1nc(NC(=O)C2CCC(=O)c3cccn32)sc1-c1ccc(OCC(C)C)cc1 (centres unmarked) [Example 86] | +++
25 | Cc1nc(NC(=O)C2CCC(=O)c3cccn32)sc1-c1cnc(OCC(C)C)c(Cl)c1 (centres unmarked) [Example 87] | +++
26 | Cc1nc(NC(=O)C2CCC(=O)c3cccn32)sc1-c1ccc(OCC(F)(F)F)cc1 (centres unmarked) [Example 88] | +++
27 | Cc1cc(-c2sc(NC(=O)C3CCC(=O)c4cccn43)nc2C)ccc1OC(F)(F)F (centres unmarked) [Example 89] | +++
28 | Cc1nc(NC(=O)C2CCC(=O)c3cccn32)sc1C1=CCN(C(=O)OC(C)(C)C)CC1 (centres unmarked) [Example 90] | +++
29 | Cc1nc(NC(=O)C2CCC(=O)c3cccn32)sc1-c1ccc(OC(F)F)cc1 (centres unmarked) [Example 91] | +++
30 | Cc1cc(-c2ccc3nc(NC(=O)C4CCC(=O)c5cccn54)sc3c2)ccc1OC(F)(F)F (centres unmarked) [Example 92] | +++
31 | O=C1CCC(C(=O)Nc2nc3ccc(-c4ccc(Cl)cc4)cc3s2)n2cccc21 (centres unmarked) [Example 93] | +++
32 | O=C1CCC(C(=O)Nc2nc3ccc(-c4ccc(F)cc4)cc3s2)n2cccc21 (centres unmarked) [Example 94] | +++
33 | O=C(c1ccccc1)c1ccc(-c2cnc(NC(=O)C3CCC(=O)c4cccn43)s2)cc1 (centres unmarked) [Example 95] | +++
34 | CC(C)c1nc(NC(=O)C2CCC(=O)c3cccn32)sc1-c1ccc(OC(F)(F)F)cc1 (centres unmarked) [Example 96] | +
35 | CC(C)C(=O)N1CC=C(c2cnc(NC(=O)C3CCC(=O)c4cccn43)s2)CC1 (centres unmarked) [Example 97] | ++
36 | CC(C)NC(=O)N1CC=C(c2cnc(NC(=O)C3CCC(=O)c4cccn43)s2)CC1 (centres unmarked) [Example 98] | ++
37 | COC(=O)c1nc(NC(=O)C2CCC(=O)c3cccn32)sc1-c1ccc(OCC(F)(F)F)cc1 (centres unmarked) [Example 99] | ++
38 | COC(=O)c1nc(NC(=O)C2CCC(=O)c3cccn32)sc1-c1ccc(OC(C)(C)C)cc1 (centres unmarked) [Example 100] | +
